From BindingDB's records for doi:10.7270/Q2N8786X (Vanderbilt Screening Center For Gpcrs, Ion Channels and …, 2009)

Target: T1, Muscarinic acetylcholine receptor M5 (Homo sapiens, UniProt P08912)
T1 sequence (P08912 whole entry): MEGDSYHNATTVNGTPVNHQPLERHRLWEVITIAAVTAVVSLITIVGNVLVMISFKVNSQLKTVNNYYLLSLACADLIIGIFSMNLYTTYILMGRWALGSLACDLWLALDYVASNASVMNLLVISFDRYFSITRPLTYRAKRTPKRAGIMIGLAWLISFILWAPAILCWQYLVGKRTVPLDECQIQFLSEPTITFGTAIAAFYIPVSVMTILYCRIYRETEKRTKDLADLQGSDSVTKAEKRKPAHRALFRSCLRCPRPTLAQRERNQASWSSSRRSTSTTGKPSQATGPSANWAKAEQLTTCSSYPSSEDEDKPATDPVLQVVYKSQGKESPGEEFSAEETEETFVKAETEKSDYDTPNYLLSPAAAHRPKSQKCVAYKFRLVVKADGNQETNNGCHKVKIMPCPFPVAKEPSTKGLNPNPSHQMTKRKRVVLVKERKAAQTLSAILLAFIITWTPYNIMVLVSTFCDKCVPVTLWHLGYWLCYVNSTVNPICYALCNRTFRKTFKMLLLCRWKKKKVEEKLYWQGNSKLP
Experiment: binding competition at muscarinic M5 – biochemical, [3H]N-methylscopolamine (AID 2192)
Conditions: inactive by the depositor's call

`COc1ccc(CN2C(=O)C(=O)c3cc(OC(F)(F)F)ccc32)cc1` [VU0238429] gave a Ki of 1.16 µM.
